Measured values published in patent publication US9255077B2, “Fluorine atom-containing mercapto compound” (FUJIFILM CORPORATION, priority 2012, dated 2016).

Assay: Solubility check: surface profile of coated fluoropolymer film observed by optical microscope
Format: physicochemical
Details: for Solubility: 0.3 wt % with respect to Cytop CTL-809M in perfluorotributylamine/1,1,1,3,3,3-hexafluoropropan-2-ol/Cytop CTL-809M=90/5/5 (parts by weight), applied onto glass substrate, 2 μm film, dried; for Solubility / compatibility with resin: same test as Table 1, coated Cytop CTL-809M film
Experimental: To a mixed solution of perfluorotributylamine/1,1,1,3,3,3-hexafluoropropan-2-ol/Cytop CTL-809M (manufactured by Asahi Glass Co., Ltd.)=90/5/5 (parts by weight), was added the compound represented by formula (1) according to the invention (any of Compounds 1-1 to 1-8) or any of Comparative Compounds C-1 to C-3 as shown below in an amount of 0.3 wt % with respect to the Cytop CTL-809M. Thereafter, the mixed solution was applied onto a glass substrate to a film thickness of 2 μm and dried.

In the case of `CC(C)CCCCCCOC(=O)CCSc1nnc(S)s1` [Compound C-1, reference compound], the Solubility is reported as “Remain partially” and the “Solubility / compatibility with resin” value is reported as “remained partially undissolved”.

In the case of `O=C(CCSc1nnc(S)s1)OCC(F)(F)C(F)(C(F)(F)C(F)(F)F)C(F)(F)C(F)(F)C(F)(F)C(F)(F)F` (centres unmarked) [Compound 1-8], the Solubility is reported as “Compatible”.

For `O=C(CSc1nnc(S)s1)OCCC(F)(F)C(F)(F)C(F)(F)C(F)(F)C(F)(F)C(F)(F)C(F)(F)F` [Compound C-3, reference compound], the Solubility was “Bleed out slightly” and the “Solubility / compatibility with resin” value was “bled out on the resin surface”.

For `O=C(CCSc1nnc(S)s1)OCCC(F)(F)C(F)(F)C(F)(F)C(F)(F)C(F)(C(F)(F)F)C(F)(F)F` [Compound 1-1], the Solubility was “Compatible”.

For `O=C(CSc1nnc(S)s1)OCCC(F)(F)C(F)(F)C(F)(F)C(F)(F)F` [Compound C-2, reference compound], the Solubility was “Bleed out (compounds which bleed out are denoted by “Bleed out,”)” and the “Solubility / compatibility with resin” value was “bled out on the resin surface”.

For `CC(CSc1nnc(S)s1)C(=O)OCCC(F)(F)C(F)(F)C(F)(F)C(F)(F)C(F)(C(F)(F)F)C(F)(F)F` (centres unmarked) [Compound 1-2], the Solubility was “Compatible”.

In the case of `O=C(CCSc1nnc(S)s1)OCCC(F)(F)C(F)(F)C(F)(C(F)(F)F)C(F)(F)F` [Compound 1-3], the Solubility is reported as “Compatible”.

With `O=C(CCSc1nnc(S)s1)OCC(F)(F)C(F)(F)C(F)(F)C(F)(F)C(F)(C(F)(F)F)C(F)(F)F` [Compound 1-6] the Solubility was “Compatible”.

For `O=C(CCSc1nnc(S)s1)OCCC(F)(F)C(F)(F)C(F)(F)C(F)(F)C(F)(F)C(F)(F)C(F)(C(F)(F)F)C(F)(F)F` [Compound 1-4], the Solubility was “Compatible”.

In the case of `O=C(CSc1nnc(S)s1)OCCC(F)(F)C(F)(F)C(F)(F)C(F)(F)C(F)(C(F)(F)F)C(F)(F)F` [Compound 1-5], the Solubility is reported as “Compatible”.

For `O=C(CCSc1nnc(S)s1)OCCCC(F)(F)C(F)(F)C(F)(F)C(F)(F)C(F)(C(F)(F)F)C(F)(F)F` [Compound 1-7], the Solubility was “Compatible”.
